How the values were obtained:
Mus musculus [1] = species: Mus musculus; assay: Antiinflammatory potency to betamethasone 17-valerate measured in mice using 5 day Tonelli croton oil ear test.; type: functional
Mus musculus [2] = species: Mus musculus; assay: Antiinflammatory potency to betamethasone 17-valerate measured in mice using 5 hr Tonelli croton oil ear test.; type: functional

Work on CC(=O)OCC(=O)[C@@]1(OC(=O)c2cccs2)C(C)CC2C3CCC4=CC(=O)C=CC4(C)[C@@]3(Cl)C(Cl)CC21C (some centres undefined) yielded a Topical potency (Mus musculus [1]) of 0.8 and a Topical potency (Mus musculus [2]) of 1.3.
CC1CC2C3CCC4=CC(=O)C=CC4(C)[C@@]3(Cl)C(Cl)CC2(C)[C@@]1(OC(=O)c1ccoc1)C(=O)CCl (some centres undefined) gave a Topical potency (Mus musculus [1]) of 1.7 and a Topical potency (Mus musculus [2]) of 1.
For CC1CC2C3CCC4=CC(=O)C=CC4(C)[C@@]3(Cl)C(Cl)CC2(C)[C@@]1(OC(=O)c1ccco1)C(=O)CO (some centres undefined), the Topical potency (Mus musculus [2]) was 0.8.
CC(=O)OCC(=O)[C@@]1(OC(=O)c2ccoc2)C(C)CC2C3CCC4=CC(=O)C=CC4(C)[C@@]3(Cl)C(Cl)CC21C (some centres undefined) gave a Topical potency (Mus musculus [1]) of 1.4 and a Topical potency (Mus musculus [2]) of 1.3.
CC1CC2C3CCC4=CC(=O)C=CC4(C)[C@@]3(Cl)C(Cl)CC2(C)[C@@]1(OC(=O)c1ccoc1)C(=O)CO (some centres undefined) gave a Topical potency (Mus musculus [2]) of 0.7.
CC1CC2C3CCC4=CC(=O)C=CC4(C)[C@@]3(Cl)C(Cl)CC2(C)[C@@]1(OC(=O)c1cccs1)C(=O)CO (some centres undefined) showed a Topical potency (Mus musculus [2]) of 0.8.
Compound CC(=O)OCC(=O)[C@@]1(OC(=O)c2ccc(C)s2)C(C)CC2C3CCC4=CC(=O)C=CC4(C)[C@@]3(Cl)C(Cl)CC21C (some centres undefined) has a Topical potency (Mus musculus [1]) of 0.56 and a Topical potency (Mus musculus [2]) of 1.2.
CC(=O)OCC(=O)[C@@]1(OC(=O)c2cccn2C)C(C)CC2C3CCC4=CC(=O)C=CC4(C)[C@@]3(Cl)C(Cl)CC21C (some centres undefined) showed a Topical potency (Mus musculus [2]) of 1.1.
For CC(=O)OCC(=O)[C@@]1(OC(=O)c2ccco2)C(C)CC2C3C[C@H](F)C4=CC(=O)C=CC4(C)[C@@]3(Cl)C(Cl)CC21C (some centres undefined), the Topical potency (Mus musculus [1]) was 1.8 and the Topical potency (Mus musculus [2]) was 3.3.
C[C@H]1CC2C3CCC4=CC(=O)C=C[C@]4(C)[C@@]3(Cl)C(Cl)C[C@]2(C)[C@@]1(OC(=O)c1ccco1)C(=O)CCl (some centres undefined) gave a Topical potency (Mus musculus [1]) of 0.8 and a Topical potency (Mus musculus [2]) of 1.2.
CC(=O)OCC(=O)[C@@]1(OC(=O)c2ccco2)[C@@H](C)CC2C3CCC4=CC(=O)C=C[C@]4(C)[C@@]3(Cl)C(Cl)C[C@@]21C (some centres undefined) showed a Topical potency (Mus musculus [1]) of 1.7 and a Topical potency (Mus musculus [2]) of 1.3.
For C[C@@H]1CC2C3CCC4=CC(=O)C=C[C@]4(C)[C@@]3(Cl)C(Cl)C[C@]2(C)[C@@]1(OC(=O)c1ccco1)C(=O)CCl (some centres undefined), the Topical potency (Mus musculus [1]) was 8.2 and the Topical potency (Mus musculus [2]) was 1.9.
CC(=O)OCC(=O)[C@@]1(OC(=O)c2ccco2)[C@H](C)CC2C3CCC4=CC(=O)C=C[C@]4(C)[C@@]3(Cl)C(Cl)C[C@@]21C (some centres undefined) showed a Topical potency (Mus musculus [1]) of 1.2 and a Topical potency (Mus musculus [2]) of 1.4.
In the case of COCC(=O)OCC(=O)[C@@]1(OC(=O)c2ccco2)C(C)CC2C3CCC4=CC(=O)C=CC4(C)[C@@]3(Cl)C(Cl)CC21C (some centres undefined), the Topical potency (Mus musculus [1]) is reported as 3 and the Topical potency (Mus musculus [2]) is reported as 1.
CC(=O)OCC(=O)[C@@]1(OC(=O)c2cnc3ccccc3n2)C(C)CC2C3CCC4=CC(=O)C=CC4(C)[C@@]3(Cl)C(Cl)CC21C (some centres undefined) showed a Topical potency (Mus musculus [2]) of 0.3.
In the case of CC(=O)OCC(=O)[C@@]1(OC(=O)c2ccsc2)C(C)CC2C3CCC4=CC(=O)C=CC4(C)[C@@]3(Cl)C(Cl)CC21C (some centres undefined), the Topical potency (Mus musculus [1]) is reported as 3.2 and the Topical potency (Mus musculus [2]) is reported as 0.9.
Work on CCCC(=O)OCC(=O)[C@@]1(OC(=O)c2ccco2)C(C)CC2C3CCC4=CC(=O)C=CC4(C)[C@@]3(Cl)C(Cl)CC21C (some centres undefined) yielded a Topical potency (Mus musculus [2]) of 1.
With CC1CC2C3CCC4=CC(=O)C=CC4(C)[C@@]3(Cl)C(Cl)CC2(C)[C@@]1(OC(=O)c1ccco1)C(=O)CF (some centres undefined) the Topical potency (Mus musculus [1]) was 4 and the Topical potency (Mus musculus [2]) was 1.8.
CC1CC2C3C[C@H](F)C4=CC(=O)C=CC4(C)[C@@]3(Cl)C(Cl)CC2(C)[C@@]1(OC(=O)c1ccco1)C(=O)CCl (some centres undefined) showed a Topical potency (Mus musculus [1]) of 3 and a Topical potency (Mus musculus [2]) of 2.5.
Compound CC1CC2C3CCC4=CC(=O)C=CC4(C)[C@@]3(Cl)C(Cl)CC2(C)[C@@]1(OC(=O)c1cccs1)C(=O)CCl (some centres undefined) has a Topical potency (Mus musculus [1]) of 3.3 and a Topical potency (Mus musculus [2]) of 0.7.
CCC(=O)OCC(=O)[C@@]1(OC(=O)c2ccco2)C(C)CC2C3CCC4=CC(=O)C=CC4(C)[C@@]3(Cl)C(Cl)CC21C (some centres undefined) gave a Topical potency (Mus musculus [1]) of 0.9 and a Topical potency (Mus musculus [2]) of 1.1.
Work on CC(=O)OCC(=O)[C@@]1(OC(=O)c2ccc(Br)o2)C(C)CC2C3CCC4=CC(=O)C=CC4(C)[C@@]3(Cl)C(Cl)CC21C (some centres undefined) yielded a Topical potency (Mus musculus [2]) of 0.6.
CCCCC(=O)O[C@]1(C(=O)CO)[C@@H](C)C[C@H]2[C@@H]3CCC4=CC(=O)C=C[C@]4(C)[C@@]3(F)[C@@H](O)C[C@@]21C [BETAMETHASONE VALERATE] was tested, and the Topical potency (Mus musculus [1]) was 1 and the Topical potency (Mus musculus [2]) was 1.
